For experiment [1], the system named is AGS cells. As to the kind of experiment: DNA fragmentation by agarose gel electrophoresis. It counts as cell-based, human. The note with it: 15 μM, 24 h, FIG. 4. The method, then: DNA Extraction and Electrophoresis Analysis. The AGS human cancer cells were harvested, washed with phosphate-buffered saline (PBS), and then lysed with digestion buffer containing 0.5% sarkosyl, 0.5 mg/mL proteinase K, 50 mM tris(hydroxy methyl)aminomethan (pH 8.0), and 10 mM EDTA at 56° C. overnight and treated with RNase A (0.5 μg/mL) for 3 h at 56° C. The DNA was extracted by phenol/chloroform/isoamyl (25:24:1) before loading and was analyzed by 2% agarose gel electrophoresis. The agarose gels were run at 50 V for 120 min in Tris-borate/EDTA electrophoresis buffer (TBE). Approximately 20 μg of DNA was loaded in each well and visualized under UV light, and photographed.
(§1) Physiological cell death is characterized by apoptotic morphology, including chromatin condensation, membrane blebbing, internucleosome degradation of DNA, and apoptotic body formation. Nucleosomal DNA ladders visible on agarose gel after staining with ethidium bromide are typical of apoptotic cell samples. To investigate whether the cytotoxic effects of NAB and ANAB observed in AGS cells were due to the presence of apoptotic cell death, cells were treated with […] (0-25 μM) for 24 h and DNA fragmentation analyses were performed. […] FIG. 5.

Experiment [2] concerns AGS cells. As to the kind of experiment: Morphological changes by light microscopy. In kind it is cell-based, human. The note with it: 10 μM, within 24 h, FIG. 5.
Excerpt: FIG. 5 provides light microscopic images showing the morphological changes of AGS cells, including the induction of apoptotic bodies from AGS cells, induced by NAB and ANAB.
as §1

As to `C=C1C(=O)O[C@H]2/C=C(\C)CC/C=C(\C)C[C@H](OC(C)=O)[C@@H]12` [Compound 4, acetyl neobritannilactone B], the “DNA fragmentation (DNA ladders)” value with AGS cells [1] is on record as “significant DNA ladders were observed”. Moreover, the morphological changes result with AGS cells [2] was “significant morphological changes and chromosomal condensation”.

The values are drawn from patent publication US20070244190A1, “Neobritannilactone B and acetyl neobritannilactone B” (priority 2006, published 2007).
